Target: Kv1.3 (Homo sapiens (Human), UniProt P22001)
Test: Patch-clamp assay for inhibitory activity on Kv1.3 (whole cell recording)
Format: cell-based
Settings: n≥2 per concentration, three or more concentrations
Description: Patch-Clamp Assay for Inhibitory Activity on Kv1.3
For a description of a Kv1.3 patch-clamp assay, see Grissmer et al., Mol. Pharmacol. 1994, 45, 1227; whole cell patch-clamp recording was performed with n≥2 individual experiments at each compound concentration using different cells. Three or more different concentrations were determined per dose response curve.

Sequence of Kv1.3 (P22001 whole entry): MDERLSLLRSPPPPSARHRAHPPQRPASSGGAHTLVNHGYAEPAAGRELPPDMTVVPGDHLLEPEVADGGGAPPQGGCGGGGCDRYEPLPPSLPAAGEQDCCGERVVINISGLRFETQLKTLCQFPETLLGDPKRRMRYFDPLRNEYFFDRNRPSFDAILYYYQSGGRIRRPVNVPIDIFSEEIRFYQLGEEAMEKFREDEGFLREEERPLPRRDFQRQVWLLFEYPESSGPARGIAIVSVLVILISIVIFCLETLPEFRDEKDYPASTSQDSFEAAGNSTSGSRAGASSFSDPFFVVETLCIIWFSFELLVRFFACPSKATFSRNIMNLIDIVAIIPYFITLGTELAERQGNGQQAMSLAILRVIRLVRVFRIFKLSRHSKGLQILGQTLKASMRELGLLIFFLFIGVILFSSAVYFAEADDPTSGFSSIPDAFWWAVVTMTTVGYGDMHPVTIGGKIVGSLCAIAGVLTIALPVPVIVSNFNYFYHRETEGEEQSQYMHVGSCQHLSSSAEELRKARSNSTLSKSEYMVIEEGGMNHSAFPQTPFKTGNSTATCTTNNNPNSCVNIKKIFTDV

Row | SMILES | IC50
1 | COc1ccccc1-c1cc(=O)oc2c(C)c3occ(C)c3cc12 [Example 1, 5-(2-methoxyphenyl)-3,9-dimethyl-7H-furo[3,2-g]chromen-7-one] | ≤ 500 nM
2 | Cc1c(-c2ccccc2)c2cc3c(C)coc3nc2oc1=O [Example 25, 3,6-dimethyl-5-phenyl-7H-furo[2,3-b]pyrano[3,2-e]pyridin-7-one] | ≤ 500 nM
3 | Cc1coc2c(C)c3[nH]c(=O)c(Br)c(-c4ccccc4)c3cc12 [Example 26, 6-bromo-3,9-dimethyl-5-phenylfuro[3,2-g]quinolin-7(8H)-one] | ≤ 500 nM
4 | Cc1c(-c2ccccc2)c2cc3c(C)coc3c(C)c2[nH]c1=O [Example 31, 3,6,9-trimethyl-5-phenylfuro[3,2-g]quinolin-7(8H)-one] | ≤ 500 nM
5 | Cc1coc2c(C)c3c(cc12)c(-c1ccccc1)c(Br)c(=O)n3C [Example 33, 6-bromo-3,8,9-trimethyl-5-phenylfuro[3,2-g]quinolin-7(8H)-one] | ≤ 500 nM
6 | Cc1c(-c2ccccc2)c2cc3c(C)coc3c(C)c2n(C)c1=O [Example 34, 3,6,8,9-tetramethyl-5-phenylfuro[3,2-g]quinolin-7(8H)-one] | ≤ 500 nM
7 | Cc1c(-c2ccccc2)c2cc3c(C)noc3c(C)c2[nH]c1=O [Example 36, 3,6,9-trimethyl-5-phenylisoxazolo[4,5-g]quinolin-7(8H)-one] | ≤ 500 nM
8 | Cc1c(-c2ccccc2Cl)c2cc3c(C)coc3c(C)c2[nH]c1=O [Example 40, 5-(2-chlorophenyl)-3,6,9-trimethylfuro[3,2-g]quinolin-7(8H)-one] | ≤ 500 nM
9 | Cc1c2oc(=O)cc(-c3ccccc3)c2cc2c(C3CC3)coc12 [Example 41, 3-cyclopropyl-9-methyl-5-phenyl-7H-furo[3,2-g]chromen-7-one] | ≤ 500 nM
10 | Cc1c(-c2ccccc2)c2cc3c(C)csc3c(C)c2oc1=O [Example 43, 3,6,9-trimethyl-4-phenyl-2H-thieno[3,2-g]chromen-2-one] | ≤ 500 nM
11 | Cc1c(-c2ccccc2)c2cc3c(C)c(C#N)oc3c(C)c2oc1=O [Example 45] | 1500 to 3000 nM
12 | Cc1c(-c2ccccc2)c2cc3c(C)coc3nc2n(C)c1=O [Example 49, 3,6,8-trimethyl-5-phenylfuro[2,3-b][1.8]naphthyridin-7(8H)-one] | ≤ 500 nM
13 | Cc1c(-c2cccnc2)c2cc3c(C)coc3c(C)c2[nH]c1=O [Example 54, 3,6,9-trimethyl-5-(pyridin-3-yl)furo[3,2-g]quinolin-7(8H)-one] | ≤ 500 nM
14 | Cc1c(-c2ccccc2Cl)c2cc3c(C)coc3c(C)c2n(C)c1=O [Example 60, 5-(2-chlorophenyl)-3,6,8,9-tetramethylfuro[3,2-g]quinolin-7(8H)-one] | ≤ 500 nM

The next lines start with the values.

Row | IC50 | SMILES
15 | ≤ 500 nM | Cc1c(-c2ccccc2F)c2cc3c(C)coc3c(C)c2oc1=O [Example 5, 5-(2-fluorophenyl)-3,6,9-trimethyl-7H-furo[3,2-g]chromen-7-one]
16 | ≤ 500 nM | COc1ccccc1-c1c(C)c(=O)oc2c(C)c3occ(C)c3cc12 [Example 7, 5-(2-methoxyphenyl)-3,6,9-trimethyl-7H-furo[3,2-g]chromen-7-one]
17 | ≤ 500 nM | Cc1coc2c(C)c3oc(=O)cc(-c4ccccc4F)c3cc12 [Example 8, 5-(2-fluorophenyl)-3,9-dimethyl-7H-furo[3,2-g]chromen-7-one]
18 | ≤ 500 nM | Cc1c(-c2ccccc2)c2cc3c(C)coc3c(C)c2oc1=O [Example 9, 3,6,9-trimethyl-5-phenyl-7H-furo[3,2-g]chromen-7-one]
19 | ≤ 500 nM | CCOc1ccccc1-c1c(C)c(=O)oc2c(C)c3occ(C)c3cc12 [Example 10, 5-(2-ethoxyphenyl)-3,6,9-trimethyl-7H-furo[3,2-g]chromen-7-one]
20 | ≤ 500 nM | Cc1c(-c2ccccc2Cl)c2cc3c(C)coc3c(C)c2oc1=O [Example 11, 5-(2-chlorophenyl)-3,6,9-trimethyl-7H-furo[3,2-g]chromen-7-one]
21 | ≤ 500 nM | CCc1coc2c(C)c3oc(=O)c(C)c(-c4ccccc4)c3cc12 [Example 16, 3-ethyl-6,9-dimethyl-5-phenyl-7H-furo[3,2-g]chromen-7-one]
22 | 501 to 1500 nM | Cc1coc2c(C)c3[nH]c(=O)c(Br)c(-c4ccccc4F)c3cc12 [Example 27, 6-bromo-5-(2-fluorophenyl)-3,9-dimethylfuro[3,2-g]quinolin-7(8H)-one]
23 | ≤ 500 nM | Cc1c(-c2ccccc2F)c2cc3c(C)coc3c(C)c2[nH]c1=O [Example 30, 5-(2-fluorophenyl)-3,6,9-trimethylfuro[3,2-g]quinolin-7(8H)-one]
24 | ≤ 500 nM | Cc1c(-c2cccnc2)c2cc3c(C)coc3c(C)c2oc1=O [Example 53, 3,6,9-trimethyl-5-(pyridin-3-yl)-7H-furo[3,2-g]chromen-7-one]
25 | ≤ 500 nM | Cc1c(-c2ccccc2F)c2cc3c(C)coc3c(C)c2n(C)c1=O [Example 61, 5-(2-fluorophenyl)-3,6,8,9-tetramethylfuro[3,2-g]quinolin-7(8H)-one]
26 | 501 to 1500 nM | COc1ncccc1-c1c(C)c(=O)oc2c(C)c3occ(C)c3cc12 [Example 62, 5-(2-methoxypyridin-3-yl)-3,6,9-trimethyl-7H-furo[3,2-g]chromen-7-one]

Test system: female Dark Agouti rats
Test: Pristane-induced arthritis (PIA) model
Format: in vivo, rat
Settings: MTX 0.05 mg/kg i.p., sid, DAY16 to DAY30; maximum AI=16; controls AI around 14; p=0.001
Description: Pristane-Induced Arthritis (PIA) Model
Arthritis was induced in female Dark Agouti rats by intradermal injection of 150 μL/rat pristane into the base of the tail on DAY0, according to Vingsbo et al., Am. J. Pathol. 1996, 149, 1675. Compound treatment was started on DAY16 and continued until DAY30, dosing Example 53 at 60 mg/kg, p.o., sid, and Example 34 at 45 mg/kg, p.o., bid, each in a lipophilic formulation. As a positive control, methotrexate (MTX) was dosed i.p., sid, with 0.05 mg/kg, also starting DAY16. Arthritis development was monitored daily by a macroscopic scoring system for the four limbs ranging from 0 to 4 (0=no visible effects of arthritis; 1=edema and/or erythema of one digit; 2=edema and/or erythema of two joints; 3=edema and/or erythema of more than two joints; 4=severe arthritis of the entire paw and digits, associated with ankylosis and deformity of the paw.), resulting in an Arthritic Index (AI) reflecting the sum of scores of all 4 limbs per rat (maximum AI=16).
Disease induction in saline-treated and vehicle-treated control animals reached a maximum of AI around 14.

Row | SMILES | Arthritic Index (AI)
27 | CN(Cc1cnc2nc(N)nc(N)c2n1)c1ccc(C(=O)N[C@@H](CCC(=O)O)C(=O)O)cc1 [MTX, methotrexate] | ~8.7
